# Laboratory results taken from patent US20250092030A1, “ENHANCERS OF PARTICULATE GUANYLYL CYCLASE RECEPTOR A” (Mayo Foundation for Medical Education and Research, priority 2023, published 2025).
# Several values for one entry are separate records, joined by “and”; a condition that tells them apart may be missing. Equal entries are not always repeated.
# Biological target: T1, particulate guanylyl cyclase receptor A (pGC-A) (Homo sapiens, UniProt P16066)
# T1 construct: expressed in transfected cells; host or cells: HEK293
# T1 sequence (P16066 33-1061): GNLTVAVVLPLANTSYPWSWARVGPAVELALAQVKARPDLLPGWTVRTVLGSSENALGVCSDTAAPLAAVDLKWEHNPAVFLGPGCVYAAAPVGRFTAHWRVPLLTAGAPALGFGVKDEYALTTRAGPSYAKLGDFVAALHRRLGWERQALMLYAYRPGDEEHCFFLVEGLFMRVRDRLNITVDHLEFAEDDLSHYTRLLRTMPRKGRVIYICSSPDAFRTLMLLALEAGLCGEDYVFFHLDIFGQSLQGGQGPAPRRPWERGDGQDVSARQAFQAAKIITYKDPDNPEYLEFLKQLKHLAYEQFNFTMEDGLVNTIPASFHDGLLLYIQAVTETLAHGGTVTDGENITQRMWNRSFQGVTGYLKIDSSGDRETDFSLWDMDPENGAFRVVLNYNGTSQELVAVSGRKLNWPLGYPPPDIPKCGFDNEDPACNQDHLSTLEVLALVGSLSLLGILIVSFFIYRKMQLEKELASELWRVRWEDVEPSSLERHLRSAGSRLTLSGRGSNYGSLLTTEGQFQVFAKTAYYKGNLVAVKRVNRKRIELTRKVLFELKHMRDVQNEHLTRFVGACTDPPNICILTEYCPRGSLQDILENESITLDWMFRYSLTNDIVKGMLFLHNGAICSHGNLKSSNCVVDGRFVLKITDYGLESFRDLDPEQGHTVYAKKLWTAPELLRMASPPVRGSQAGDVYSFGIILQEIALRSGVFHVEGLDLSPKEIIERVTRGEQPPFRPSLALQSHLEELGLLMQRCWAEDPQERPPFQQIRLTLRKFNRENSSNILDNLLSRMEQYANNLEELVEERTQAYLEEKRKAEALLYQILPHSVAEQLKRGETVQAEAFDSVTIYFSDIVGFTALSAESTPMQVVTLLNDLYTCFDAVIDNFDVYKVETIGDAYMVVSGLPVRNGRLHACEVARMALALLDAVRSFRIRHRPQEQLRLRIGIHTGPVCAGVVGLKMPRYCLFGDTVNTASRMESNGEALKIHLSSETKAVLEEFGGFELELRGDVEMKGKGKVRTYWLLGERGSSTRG
# T1 sequence (P01160 124-151 partner limits assumed): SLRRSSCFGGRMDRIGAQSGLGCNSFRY
# Experiment: cGMP production by HTRF in HEK293 cells overexpressing pGC-A, with ANP
# Assay type: cell-based
# Settings: HEK293, HEK293 cells overexpressing pGC-A; cGMP normalized to maximal amount produced by an EC80 concentration of ANP; read-out: Max efficacy
# Method in brief: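 Suspension cells stimulated 30 min at room temperature with test compound (10 μM stock in DMSO) plus ANP near EC20 in HBSS/5 mM HEPES/0.05% BSA. cGMP quantified by competitive HTRF immunoassay (Eu3+ cryptate anti-cGMP, d2-cGMP), normalized to cGMP from EC80 ANP; EC50 derived with or without ANP.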
row,Emax [%],Structure (SMILES)
1,82,CN(C)CCN1CCCC(C(=O)N(C)c2nc3c(F)cc(F)cc3s2)C1 (stereo not shown) [compound 232]
2,45,O=C(Nc1nc2c(F)cc(F)cc2s1)C1CNCC(O)C1 (stereo not shown) [compound 263]
3,80,CN1CCCC(CN2CCCC(C(=O)Nc3nc4c(F)cc(F)cc4s3)C2)C1 (stereo not shown) [compound 074]
4,49,CCN(CC)C(=O)N1CCCC(C(=O)Nc2nc3c(F)cc(F)cc3s2)C1 (stereo not shown) [compound 276]
5,113,CN(C)CCN1CCCC(C(=O)Nc2nc3c(F)cc(Cl)cc3s2)C1 (stereo not shown) [compound 235]
6,89,O=C(Nc1nc2c(F)cc(F)cc2s1)C1CCCN(C2CNC2)C1 (stereo not shown) [compound 085]

# Same assay, conditions: HEK293 cells overexpressing pGC-A; cGMP normalized to maximal amount produced by an EC80 concentration of ANP
row,Max efficacy,Structure (SMILES)
1,"113, 113%",CN(C)CCN1CCCC(C(=O)Nc2nc3c(F)cc(Cl)cc3s2)C1 (stereo not shown) [compound 235]
2,84%,O=C(Nc1nc2c(F)cc(F)cc2s1)C1CCCN(C2CNC2)C1 (stereo not shown) [compound 085]
3,135% and 104%,O=C(Nc1nc2c(F)cc(F)cc2s1)C1CCCN(c2cccnc2)C1 (stereo not shown) [compound 080]

# Same assay, conditions: HEK293 cells overexpressing pGC-A; test compound plus EC20 concentration of ANP; cGMP by HTRF
row,EC50,Structure (SMILES)
1,2.1 µM,CN(C)CCN1CCCC(C(=O)N(C)c2nc3c(F)cc(F)cc3s2)C1 (stereo not shown) [compound 232]
2,1.3 µM,O=C(Nc1nc2c(F)cc(F)cc2s1)C1CNCC(O)C1 (stereo not shown) [compound 263]
3,1.1 µM,CN1CCCC(CN2CCCC(C(=O)Nc3nc4c(F)cc(F)cc4s3)C2)C1 (stereo not shown) [compound 074]
4,1.6 µM and > 5 µM,CCN(CC)C(=O)N1CCCC(C(=O)Nc2nc3c(F)cc(F)cc3s2)C1 (stereo not shown) [compound 276]
5,1.4 µM and 2.6 µM,CN(C)CCN1CCCC(C(=O)Nc2nc3c(F)cc(Cl)cc3s2)C1 (stereo not shown) [compound 235]
6,0.08 µM and 0.2 µM,O=C(Nc1nc2c(F)cc(F)cc2s1)C1CCCN(C2CNC2)C1 (stereo not shown) [compound 085]
7,0.7 µM,N[C@@H]1CCC[C@H](C(=O)Nc2nc3c(F)cc(F)cc3s2)C1 [compound 208]
8,> 5 µM,O=C(O)C1CNCC(C(=O)Nc2nc3c(F)cc(F)cc3s2)C1 (stereo not shown) [compound 271]
9,> 5 µM,O=C(Nc1nc2c(F)cc(F)cc2o1)C1CCCNC1 (stereo not shown) [compound 248]
10,> 10 µM,O=C(Nc1nc2c(F)cc(F)cc2s1)c1ccccc1Cl [compound 200]
11,> 5 µM,CN(C)CCN1CCCC(C(=O)Nc2nc3c(F)cc(F)cc3c(=O)[nH]2)C1 (stereo not shown) [compound 182]
12,7.4 µM and 2.5 µM,O=C(Nc1nc2c(F)cc(F)cc2s1)C1CCCN(c2cccnc2)C1 (stereo not shown) [compound 080]
13,> 10 µM,O=C(Nc1nc2c(F)cc(F)cc2s1)c1ccccc1 [compound 199]
